Entries after “also recorded” stand apart in the source; their conditions may differ.
Assays:
[1] = Photostationary state (PSS) determination by HPLC-MS in aqueous assay buffer; format: physicochemical; settings: for PSS365 (% cis) / PSS525 (%trans): 21 °C, HPLC-MS, 60 μM, aqueous buffer 0.6% DMSO; for PSS365 (% cis): 3 min illumination 365 nm; for PSS525 (%trans): 3 min illumination 525 nm
Protocol: (§1) The UV–vis absorbance spectra of all molecules were measured in the dark and after the application of light of different wavelengths ranging from 365 to 770 nm (Figure A and Figures S1–S3). […] Consequently, violet/UV light below 405 nm efficiently promoted photoisomerization, which produced a dramatic decrease in the π-π* band and a significant increase in the n-π* band at around 445 nm (Table ). […] The proportion of molecules at the PSS in trans isomer upon constant illumination with light at 525 nm and cis at 365 nm was in general above 50%, reaching a remarkable >99% for compound 11d (Table and Figures S4 and S5). […] The greater stability of the trans isomer was consistent with previous quantum mechanical and molecular mechanics predictions. Measuring the photoisomerization properties of compound PhotoVDRM allowed us to determine the photoisomerization quantum yields of the compound by solving a differential equation for photoisomerization. We used MATLAB to perform regression and arrive at the following photoisomerization quantum yields: ϕ365 nm (trans) = 0.0427, ϕ365 nm (cis) = 0.0501, ϕ470 nm (trans) = 0.1857, and ϕ470 nm (cis) = 0.2281 (Figure S9). Compound PhotoVDRM was also evaluated in aqueous buffer used for pharmacological experiments (0.5% DMSO) showing a thermal relaxation of 3 h, almost 7 times faster than in pure DMSO (Figure B). […] A deeper photocharacterization of PhotoVDRM allowed us to measure the kinetics of photoconversion upon constant illumination with two wavelengths and three light intensities (Figure D and Figure S10). […] Indeed, with LED devices producing light at intensities as low as 0.05 mW/mm^2 we were able to transform trans to cis in around 15.5 s. This time was reduced to 6 and 2 s when the light intensity was increased to 0.15 and 0.75 mW/mm^2. […] Therefore, we proceeded to test the ability of the chemical library to activate the VDR under different light conditions.
Photostationary state (PSS) determination. In a transparent vial, solutions of the compounds were prepared at a concentration of 60 µM from a 10 mM stock in DMSO, using the assay buffer of pharmacological experiments for dilution. Prior to illumination, a volume of 500 µL was transferred to an amber vial for the "dark" sample. The same procedure was repeated after exposing the transparent vial containing the 60 µM solutions to the following light conditions:
365nm for 3 minutes and 525nm for 3 minutes. […]
difference on isomeric proportions. For each sample, 20 µL was analyzed by HPLC-MS, and the isomer ratios were determined at the isosbestic point.
Isosbestic point determination. The solvent percentage for the elution of each isomer were calculated based on their retention times from HPLC analysis. Subsequently, 50 µM solutions were prepared from the 10 mM DMSO stock solution of each compound using the previously determined HPLC solvent mixture. The UV spectrum for each solution was recorded after illumination at 365 nm (30 seconds), at 400 nm (30 seconds), and at 525 nm (30 seconds). The spectra were overlaid to identify the isosbestic point of maximum intensity.
HPLC conditions. Analytical HPLC was performed on a Thermo Ultimate 3000SD (Thermo Scientific Dionex) coupled to a PDA detector and Mass Spectrometer LTQ XL ESI-ion trap (Thermo Scientific). Cromatographic separations were performed using a ZORBAX Eclipse Plus C18 (4.6 x 150mm; 3.5µm) column. The mobile phase consisted of an isocratic mixture of solvent A (water with 0.05% of formic acid) and solvent B (acetonitrile with 0.05% formic acid) at a 3:7 ratio for compounds 10a-d and a 2:3 ratio for compounds 11a-d and 12a-d. […]

[2] = Thermal relaxation and photoisomerization rates of PhotoVDRM in aqueous assay buffer; format: physicochemical; settings: for photoisomerization rate (τ) trans to cis: 365 nm, aqueous buffer 0.6% DMSO
Protocol: as §1, with “S9).” for “S9). Compound PhotoVDRM was also evaluated in aqueous buffer used for pharmacological experiments (0.5% DMSO) showing a thermal relaxation of 3 h, almost 7 times faster than in pure DMSO (Figure B).”
2 Photochemical characterization of compound PhotoVDRM. (A) UV–vis absorption spectra of compound PhotoVDRM under different light conditions. (B) Half-lifetime estimation of compound PhotoVDRM, absorbance was measured at 365 nm. (C) Multiple cis/trans isomerization cycles (365/460 nm) show the stability of the compound over 6 cycles of light application. (D) Photoisomerization under constant illumination with light at 365 nm (violet shade) and 470 nm (blue shade). Light was applied with a CoolLED pe-4000 at 50% intensity that corresponded to 0.75 mW/mm^2 for the light at 365 nm and 0.56 mW/mm^2 for the light at 470 nm; 10% intensity corresponded to 0.15 mW/mm^2 for the light at 365 nm and 0.12 mW/mm^2 for the light at 470 nm; and 5% intensity corresponded to 0.06 mW/mm^2 for the light at 365 nm and 0.05 mW/mm^2 for the light at 470 nm. The photoisomerization rates (τ) using light at 365 nm were measured as 2, 6, and 15.5 s with 50%, 10% and 5% of intensity. […]

[3] = Serum total calcium measurement in mice (Arsenazo III); format: in vivo; settings: after treatment i.p. days 2-4 (LSN2148936 0.005 mg/kg, PhotoVDRM 0.5 mg/kg), 420 or 520 nm

Row | SMILES | PSS365 (% cis) [1] [%] | PSS525 (%trans) [1] [%] | further results
1 | COC(=O)c1ccc(-c2cccc(/N=N/c3ccc(OCC(O)C(C)(C)C)cc3C)c2)cc1 (stereo not shown) [Compound 10b] | 78 | 73 | 
2 | Cc1cc(OCC(O)C(C)(C)C)ccc1N=Nc1cccc(-c2ccc(C(=O)O)cc2)c1 (stereo not shown) [Compound 11b] | 95 | 55 | proportion of cis at PSS 460 nm ([1]; 460 nm, assay buffer (Figure S4D)): 63%; photoisomerization rate (τ) trans to cis ([2]; 10% intensity, 0.15 mW/mm^2, 25 °C): 6 s; photoisomerization rate (τ) trans to cis ([2]; 50% intensity, 0.75 mW/mm^2, 25 °C): 2 s; thermal relaxation ([2]; aqueous buffer used for pharmacological experiments (0.5% DMSO)): 3 h; thermal relaxation in aqueous buffer, times faster than in pure DMSO ([2]; buffer vs pure DMSO): ~7 times; effect on calcium homeostasis (serum total calcium) [3]: null impact; also recorded: without concomitant hypercalcemia
3 | COC(=O)c1ccc(-c2cccc(/N=N/c3ccc(OCC(O)C(C)(C)C)c(C)c3)c2)cc1 (stereo not shown) [Compound 10a] | 83 | 86 | 
4 | COC(=O)c1ccc(-c2cccc(/N=N/c3ccc(OCC(O)C(C)(C)C)cc3C)c2)c(C)c1 (stereo not shown) [Compound 10d] | 88 | 81 | 
5 | COC(=O)c1ccc(-c2cccc(/N=N/c3ccc(OCC(O)C(C)(C)C)c(C)c3)c2)c(C)c1 (stereo not shown) [Compound 10c] | 73 | 83 | 

Continued, in another order:

Row | PSS365 (% cis) [1] [%] | PSS525 (%trans) [1] [%] | SMILES | further results
6 | 96 | 84 | Cc1cc(/N=N/c2cccc(-c3ccc(C(=O)O)cc3C)c2)ccc1OCC(O)C(C)(C)C (stereo not shown) [Compound 11c] | 
7 | 94 | 74 | Cc1cc(/N=N/c2cccc(-c3ccc(C(=O)O)cc3)c2)ccc1OCC(O)C(C)(C)C (stereo not shown) [Compound 11a] | 
8 | 80 | 87 | Cc1cc(/N=N/c2cccc(-c3ccc(CO)cc3)c2)ccc1OCC(O)C(C)(C)C (stereo not shown) [Compound 12a] | 
9 | 84 | 84 | Cc1cc(OCC(O)C(C)(C)C)ccc1/N=N/c1cccc(-c2ccc(CO)cc2)c1 (stereo not shown) [Compound 12b] | 
10 | >99 | 61 | Cc1cc(OCC(O)C(C)(C)C)ccc1/N=N/c1cccc(-c2ccc(C(=O)O)cc2C)c1 (stereo not shown) [Compound 11d] | 
11 | 88 | 82 | Cc1cc(OCC(O)C(C)(C)C)ccc1/N=N/c1cccc(-c2ccc(CO)cc2C)c1 (stereo not shown) [Compound 12d] | 
